Results from patent US10392346B2, “Kinase inhibitors” (Topivert Pharma Limited, priority 2014, dated 2019).
Counter-ions that a name gives are not always drawn.

Experiments:
[1] = Hydrolytic stability study; type: physicochemical; conditions: 1 mg/mL; for % Parent Remaining: DMSO/water (3:1)
Description: Chemical stability of compounds of the invention was assessed in a mixture of DMSO and water (3:1) at a test compound concentration of 1 mg/mL.
General HPLC Procedure • Agilent, Waters X-Select C18, 2.5 μm, 4.6×30 mm column, 4 min method, 5-95% MeCN/water (0.1% formic acid). Flow rate 2.5 mL/min. Column Oven Temperature 40° C. Detection 254 nm.
Sample Preparation • A 1.0 mg sample of test compound was dissolved in 750 μL of DMSO. Water (250 μL) was added slowly, ensuring no precipitation occurred.
Recording Stability • A 50 μL aliquot of the test solution was removed and analysed in duplicate by 5 μL HPLC injections. The peak area for the test compound was recorded following manual integration of the corresponding UV trace. • The test solution was heated to 60° C., with stirring, and 50 μL aliquots removed for HPLC analysis at 5 and 24 h timepoints.

LPS-stimulated rats = assay: Endotoxin-induced uveitis in rats (assay vi); type: in vivo, rat; conditions: rats treated with intravitreal endotoxin LPS
Description: Male, Lewis rats (6-8 weeks old, Charles River UK Limited) are housed in cages of 3 at 19-21° C. with a 12 h light/dark cycle (07:00/19:00) and fed a standard diet of rodent chow and water ad libitum. Non-fasted rats are weighed, individually identified on the tail with a permanent marker, and receive a single intravitreal administration into the right vitreous humor (5 μL dose volume) of 100 ng/animal of LPS (Escherichia coli 0111:B4 prepared in PBS, Sigma Aldrich, UK) using a 32-gauge needle. Untreated rats are injected with PBS. Test compound or vehicle (4% polyoxyl 40 stearate, 4% mannitol in PBS (pH 7.4)) are administered by the topical route onto the right eye (10 μL) of animals 1 hour prior to LPS, at the time of LPS administration, and 1, 2 and 4 hours post LPS administration. Before administration, the solution to be administered is sonicated to ensure a clear solution. 6 hours after LPS dosing, animals are euthanized by overdose with pentobarbitone (via cardiac puncture) Immediately after euthanasia, 10 μL of aqueous humor is collected from the right eye of the rats by puncture of the anterior chamber using a 32 gauge needle under a surgical microscope. The aqueous humor is diluted in 20 μL of PBS and total cell counts are measured immediately using a Countess automated cell counter (Invitrogen). […]

[2] = Stability of pharmaceutical formulations; type: physicochemical; conditions: for Purity (%) at week n = 4: 4 weeks
Description: The samples were sonicated to achieve clear solutions having the following properties: Osmolality (mOsm/kg): 310 (Na), 314 (HCl); pH: 7.00 (Na), 7.05 (HCl). 0.5 mL of the stock solutions were diluted to 1 mL with 20% DMSO in water & injected for purity analysis by HPLC. The remaining stock solutions were then split into aliquots of 0.5 mL in HPLC vials, and stored at various conditions in duplicate. Samples were stored at 5 and 25° C., before being analysed by HPLC at 1, 2 and 4 weeks. Separate samples were stored at 40° C. and analysed at 4 weeks.

[3] = test system: eyes of albino New Zealand White rabbits; conditions: Phase 1, one treatment day, 0.1 and 1.0 mg/mL
[4] = test system: Salmonella typhimurium, strains TA1535, TA1537, TA98 and TA100; assay: Bacterial reverse mutation screen (plate incorporation); conditions: for limit of solubility in the mutation test: all strains; for limit of solubility in the mutation test / mutagenic effects (revertant numbers): presence and absence of S-9 mix; for toxicity to the bacteria (mean colony count): at 500-5000 μg/plate in some strains
[5] = test system: Escherichia coli, WP2 uvrA; assay: as above; conditions: for mutagenic effects (revertant numbers): presence and absence of S-9 mix
[6] = test system: patients with severe Crohn's disease; conditions: over 8 weeks; cited from earlier work
non-mutant kinases = assay: KinomeScan selectivity scores; type: binding; conditions: for KinomeScan Selectivity Score S(1): kinases with % Ctrl <1 / kinases tested; for KinomeScan Selectivity Score S(10): kinases with % Ctrl <10 / kinases tested; for kinase selectivity compared to the Reference Compound: KINOMEscan selectivity scores
Description: These assays may be conducted by DiscoverX (formerly Ambit; San Diego, Calif.).

Crohn's patients = conditions: transient, baseline by week 8; cited from earlier work
[7] = test system: rheumatoid arthritis patients; conditions: cited from earlier work
[8] = 60° C., 24 h timepoint (1429-1450 min)

Q: Which results are given for `C#Cc1cc(Nc2nccc(Oc3ccc(NC(=O)Nc4cc(C(C)C)nn4-c4ccc(C)cc4)c4ccccc34)n2)cc(C(=O)NCCN2CCOCC2)c1` [Reference Compound B, 3-ethynyl-5-((4-((4-(3-(3-isopropyl-1-(p-tolyl)-1H-pyrazol-5-yl)ureido)naphthalen-1-yl)oxy)pyrimidin-2-yl)amino)-N-(2-morpholinoethyl)benzamide, reference compound]?
A: decomposition (hydrolytic stability) ([1]; DMSO and water (3:1), 60° C., 5 and 24 h): underwent substantial decomposition; % Parent Remaining ([1]; 60° C., 5 h timepoint (297-317 min)): 79%; % Parent Remaining [1, 8]: 18%; % Parent Remaining ([1]; time 0 min): 100%

Q: Which results are given for `COc1cc(Nc2cc(Oc3ccc(NC(=O)Nc4cc(C(C)(C)C)cc(NS(C)(=O)=O)c4OC)c4ccccc34)ccn2)ccc1C(=O)O` [Example 1, 4-((4-((4-(3-(5-(tert-Butyl)-2-methoxy-3-(methylsulfonamido)phenyl)ureido)naphthalen-1-yl)oxy)pyridin-2-yl)amino)-2-methoxybenzoic acid]?
A: cellular infiltration (cell counts) in the eyes (LPS-stimulated rats): significantly and dose-dependently reduced; cytokine IL-1β levels in anterior and posterior segments of the eyes (LPS-stimulated rats): significantly and dose-dependently reduced; stability in solution ([2]; 1 mg/mL Na and HCl salts, 10 mM pH 7.2 phosphate buffer, 4.5% mannitol, 3% polyoxyl 40 stearate, 5° C., up to 4 weeks): stable; ocular reactions versus vehicle controls [3]: no differences in the frequency, severity and incidence; limit of solubility in the mutation test [4]: 1500 μg/plate; toxicity to the bacteria (mean colony count) [4]: reduction in the mean colony count; mutagenic effects (revertant numbers) [4]: absence of any mutagenic effects; mutagenic effects (revertant numbers) [5]: absence of any mutagenic effects

Q: For `C/C(=N\N=C(N)N)c1cc(NC(=O)CCCCCCCCC(=O)Nc2cc(/C(C)=N/N=C(N)N)cc(/C(C)=N/N=C(N)N)c2)cc(/C(C)=N/N=C(N)N)c1.Cl.Cl.Cl.Cl` [CNI-1493], which clinical score [6] is on record?
A: significant improvement in clinical score

Q: For `COc1cc(Nc2cc(Oc3ccc(NC(=O)Nc4cc(C(C)(C)C)cc(NS(C)(=O)=O)c4OC)c4ccccc34)ccn2)cc(OC)c1C(=O)NCCOCCOCCO` [Example 36, 4-((4-((4-(3-(5-(tert-Butyl)-2-methoxy-3-(methylsulfonamido)phenyl)ureido)naphthalen-1-yl)oxy)pyridin-2-yl)amino)-N-(2-(2-(2-hydroxyethoxy)ethoxy)ethyl)-2,6-dimethoxybenzamide], which “KinomeScan Selectivity Score S(1)” value (non-mutant kinases; 50 nM) is on record?
A: 0.002

Q: And the “KinomeScan Selectivity Score S(10)” value (non-mutant kinases; 50 nM)?
A: 0.050

Q: And the “KinomeScan Selectivity Score S(1)” value (non-mutant kinases; 500 nM)?
A: 0.079

Q: And the “kinase selectivity compared to the Reference Compound” value (non-mutant kinases)?
A: improved selectivities

Q: With `COc1cc(Nc2cc(Oc3ccc(NC(=O)Nc4cc(C(C)(C)C)cc(NS(C)(=O)=O)c4OC)c4ccccc34)ccn2)ccc1C(=O)O` [Example 1, sodium salt] as the compound, how does the “Purity (%) at week n = 4” value ([2]; 1 mg/mL buffered solution stored at 40° C., duplicate samples) read?
A: 76.0%

Q: With `COc1cc(Nc2cc(Oc3ccc(NC(=O)Nc4cc(C(C)(C)C)cc(NS(C)(=O)=O)c4OC)c4ccccc34)ccn2)ccc1C(=O)O.Cl` [Example 1, hydrochloride salt, 4-((4-((4-(3-(5-(tert-butyl)-2-methoxy-3-(methylsulfonamido)phenyl)ureido)naphthalen-1-yl)oxy)pyridin-2-yl)amino)-2-methoxybenzoic acid, hydrochloride salt] as the compound, how does the “Purity (%) at week n = 2” value ([2]; 1 mg/mL buffered solution stored at 5° C., 2 weeks, duplicate samples, hydrochloride salt) read?
A: 98.0%

Q: And the “Purity (%) at week n = 4” value ([2]; 1 mg/mL buffered solution stored at 5° C., duplicate samples, hydrochloride salt)?
A: 98.0%

Q: What about the “Purity (%) at week n = 1” value ([2]; 1 mg/mL buffered solution stored at 25° C., 1 week, duplicate samples) of the same compound?
A: 98.0%

Q: What does the source list for `COc1cc(Nc2cc(Oc3ccc(NC(=O)Nc4cc(C(C)(C)C)cc(NS(C)(=O)=O)c4OC)c4ccccc34)ccn2)ccc1P(C)(=O)O` [Example 44, (4-((4-((4-(3-(5-(tert-Butyl)-2-methoxy-3-(methylsulfonamido)phenyl)ureido)naphthalen-1-yl)oxy)pyridin-2-yl)amino)-2-methoxyphenyl)(methyl)phosphinic acid]?
A: % Parent Remaining [1, 8]: 98%; % Parent Remaining ([1]; time 0 min): 100%; limit of solubility in the mutation test [4]: 5000 μg/plate; toxicity to the bacteria (mean colony count) [4]: reduction in the mean colony count; mutagenic effects (revertant numbers) [4]: absence of any mutagenic effects; toxicity to the bacteria (mean colony count) ([5]; 5000 μg/plate, absence of S-9 mix): reduction in the mean colony count; mutagenic effects (revertant numbers) [5]: absence of any mutagenic effects

Q: For `Cc1ccc(-n2nc(C(C)(C)C)cc2NC(=O)Nc2ccc(OCCN3CCOCC3)c3ccccc23)cc1` [BIRB796], which “clinical benefit (C-reactive protein levels)” value (Crohn's patients) is on record?
A: improvement in C-reactive protein levels

Q: For `COc1cc(Nc2cc(Oc3ccc(NC(=O)Nc4cc(C(C)(C)C)cc(NS(C)(=O)=O)c4OC)c4ccccc34)ccn2)cc(OC)c1C(=O)NCCOCCOCCOP(=O)(O)O` [Example 47, 2-(2-(2-(4-((4-((4-(3-(5-(tert-butyl)-2-methoxy-3-(methylsulfonamido)phenyl)ureido)-naphthalen-1-yl)oxy)pyridin-2-yl)amino)-2,6-dimethoxybenzamido)ethoxy)ethoxy)ethyl dihydrogen phosphate], which “KinomeScan Selectivity Score S(10)” value (non-mutant kinases; 50 nM) is on record?
A: 0.042

Q: And the “KinomeScan Selectivity Score S(1)” value (non-mutant kinases; 500 nM)?
A: 0.074

Q: And the “kinase selectivity compared to the Reference Compound” value (non-mutant kinases)?
A: improved selectivities

Q: What about the “% Parent Remaining” value [1, 8] of the same compound?
A: 89%

Q: And the “% Parent Remaining” value ([1]; time 0 min)?
A: 100%

Q: For `COc1cc(Nc2ncc(F)c(Nc3ccc4c(n3)N(COP(=O)(O)O)C(=O)C(C)(C)O4)n2)cc(OC)c1OC` [Fostamatinib], which “clinical outcome and serum IL-6 and MMP-3” value [7] is on record?
A: improved clinical outcome and reduced serum levels of IL-6 and MMP-3
